We go through five molecules from ChEMBL document CHEMBL2057197, “Synthesis and evaluation of water-soluble resveratrol and piceatannol via BGLation” (Bioorg Med Chem Lett, 2012).

Calls of active or inactive are those of the source. The calls are words filed in the database; no cut-off is given here.

The first assay concerns 3T3-L1. The experiment in a line: Reduction in triglyceride level in mouse 3T3L1 cells at 10 to 50 uM after 48 hrs. It counts as functional, cell-based.
As for `OCC(CO)OCC(COC(CO)CO)n1cc(COc2cc(O)cc(/C=C/c3ccc4c(c3)OCO4)c2)nn1`, the outcome was inactive.

Turning to `OCC(CO)OCC(COC(CO)CO)n1cc(COc2cc(O)cc(/C=C/c3ccc(O)cc3)c2)nn1`, the result was inactive.

With `COc1ccc(/C=C/c2cc(O)cc(OCc3cn(C(COC(CO)CO)COC(CO)CO)nn3)c2)cc1`, the result was inactive.

As to `OCC(CO)OCC(COC(CO)CO)n1cc(COc2cc(O)cc(/C=C/c3ccc(O)c(O)c3)c2)nn1`, the result was Active.

For the molecule `Oc1cc(O)cc(/C=C/c2ccc(O)c(O)c2)c1`, the outcome was Active.

In the next assay the test system is 3T3-L1. The assay can be described thus: Induction of mitochondrial fusion in mouse 3T3L1 cells at 10 to 50 uM after 48 hrs by green Fm-staining. It counts as functional, cell-based.
Take `OCC(CO)OCC(COC(CO)CO)n1cc(COc2cc(O)cc(/C=C/c3ccc4c(c3)OCO4)c2)nn1`: the result was Active.

In the case of `OCC(CO)OCC(COC(CO)CO)n1cc(COc2cc(O)cc(/C=C/c3ccc(O)cc3)c2)nn1`, the result was inactive.

With `COc1ccc(/C=C/c2cc(O)cc(OCc3cn(C(COC(CO)CO)COC(CO)CO)nn3)c2)cc1`, the result was inactive.

In the case of `OCC(CO)OCC(COC(CO)CO)n1cc(COc2cc(O)cc(/C=C/c3ccc(O)c(O)c3)c2)nn1`, the outcome was Active.

Consider `Oc1cc(O)cc(/C=C/c2ccc(O)c(O)c2)c1`, for which the result was Active.
